The record followed here is ChEMBL document CHEMBL3616390, “Design and synthesis of N-[6-(Substituted Aminoethylideneamino)-2-Hydroxyindan-1-yl]arylamides as selective and potent muscarinic M₁ agonists” (Bioorg Med Chem Lett, 2015).

Type in all cases: functional, cell-based
In test [1] the target is T1, Muscarinic acetylcholine receptor M1 (Homo sapiens, UniProt P11229).
T1 sequence (P11229 whole entry): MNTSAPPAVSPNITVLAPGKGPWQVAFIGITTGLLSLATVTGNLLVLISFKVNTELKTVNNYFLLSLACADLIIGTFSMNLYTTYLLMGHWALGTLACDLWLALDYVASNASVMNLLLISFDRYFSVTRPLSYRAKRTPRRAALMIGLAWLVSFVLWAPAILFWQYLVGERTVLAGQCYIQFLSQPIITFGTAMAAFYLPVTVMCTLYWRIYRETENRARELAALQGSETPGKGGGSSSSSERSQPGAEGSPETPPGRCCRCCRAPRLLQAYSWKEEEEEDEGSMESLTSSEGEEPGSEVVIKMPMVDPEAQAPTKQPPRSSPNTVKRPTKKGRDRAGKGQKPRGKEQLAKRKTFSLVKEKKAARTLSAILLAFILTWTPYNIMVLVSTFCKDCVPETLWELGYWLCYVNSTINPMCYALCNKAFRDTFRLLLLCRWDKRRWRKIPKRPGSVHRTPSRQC
Kind of test: Agonist activity at human muscarinic M1 receptor expressed in CHO cells after 30 mins by GTPgamma35S binding assay. (GTPγS is a poorly hydrolysed GTP analogue; its binding reports G protein activation.)

Test [2] has as its target T2, Muscarinic acetylcholine receptor M2 (Homo sapiens, UniProt P08172).
T2 sequence (P08172 whole entry): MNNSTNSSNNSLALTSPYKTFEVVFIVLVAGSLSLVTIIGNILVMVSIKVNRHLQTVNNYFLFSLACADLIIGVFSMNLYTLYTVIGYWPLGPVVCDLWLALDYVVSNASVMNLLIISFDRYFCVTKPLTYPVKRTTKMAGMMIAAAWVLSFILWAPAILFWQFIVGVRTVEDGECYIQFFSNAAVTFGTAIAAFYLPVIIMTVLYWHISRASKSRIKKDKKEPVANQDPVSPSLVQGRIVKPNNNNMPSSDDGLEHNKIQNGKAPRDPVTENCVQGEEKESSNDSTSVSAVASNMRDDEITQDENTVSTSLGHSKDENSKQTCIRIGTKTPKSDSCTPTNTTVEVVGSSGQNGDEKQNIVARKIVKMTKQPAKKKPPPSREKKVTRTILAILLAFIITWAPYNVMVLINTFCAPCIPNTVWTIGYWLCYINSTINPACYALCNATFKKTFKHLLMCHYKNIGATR
Kind of test: Agonist activity at human muscarinic M2 receptor expressed in CHO cells after 30 mins by GTPgamma35S binding assay.

The target in test [3] is Muscarinic acetylcholine receptor M3 (Homo sapiens, UniProt P20309). Kind of test: Agonist activity at human muscarinic M3 receptor expressed in CHO cells after 30 mins by GTPgamma35S binding assay. Conditions: cho; call rule not given here.
Test [4] concerns the target T3, Muscarinic acetylcholine receptor M4 (Homo sapiens, UniProt P08173).
T3 sequence (P08173 whole entry): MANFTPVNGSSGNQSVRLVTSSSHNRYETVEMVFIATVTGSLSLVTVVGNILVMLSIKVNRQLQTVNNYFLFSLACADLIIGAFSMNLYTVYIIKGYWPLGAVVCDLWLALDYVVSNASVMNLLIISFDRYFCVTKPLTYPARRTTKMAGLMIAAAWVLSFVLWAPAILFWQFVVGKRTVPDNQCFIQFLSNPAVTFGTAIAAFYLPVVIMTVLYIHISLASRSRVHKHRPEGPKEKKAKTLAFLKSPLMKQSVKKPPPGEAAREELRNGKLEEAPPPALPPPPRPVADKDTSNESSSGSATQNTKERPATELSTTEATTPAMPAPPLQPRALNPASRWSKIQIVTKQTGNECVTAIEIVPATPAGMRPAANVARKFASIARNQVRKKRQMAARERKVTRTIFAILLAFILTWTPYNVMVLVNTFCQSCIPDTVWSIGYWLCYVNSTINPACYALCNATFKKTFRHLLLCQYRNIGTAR
Kind of test: Agonist activity at human muscarinic M4 receptor expressed in CHO cells after 30 mins by GTPgamma35S binding assay.

Test [5] deals with T4, Muscarinic acetylcholine receptor M5 (Homo sapiens, UniProt P08912).
T4 sequence (P08912 whole entry): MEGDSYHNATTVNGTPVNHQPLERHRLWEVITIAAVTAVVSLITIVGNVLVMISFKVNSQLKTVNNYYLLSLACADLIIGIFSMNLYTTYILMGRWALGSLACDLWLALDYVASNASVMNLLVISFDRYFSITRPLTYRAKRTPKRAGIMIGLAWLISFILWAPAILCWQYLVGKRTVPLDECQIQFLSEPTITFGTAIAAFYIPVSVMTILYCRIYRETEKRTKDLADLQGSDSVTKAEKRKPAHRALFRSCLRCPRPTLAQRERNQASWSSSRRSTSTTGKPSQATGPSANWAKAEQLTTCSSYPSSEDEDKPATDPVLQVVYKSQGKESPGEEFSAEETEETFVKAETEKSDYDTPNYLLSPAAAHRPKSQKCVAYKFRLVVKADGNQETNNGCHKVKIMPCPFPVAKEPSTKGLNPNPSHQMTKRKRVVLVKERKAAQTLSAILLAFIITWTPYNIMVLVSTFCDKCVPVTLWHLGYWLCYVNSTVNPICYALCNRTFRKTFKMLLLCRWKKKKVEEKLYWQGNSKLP
Kind of test: Agonist activity at human muscarinic M5 receptor expressed in CHO cells after 30 mins by GTPgamma35S binding assay. The note with it: cho.

The target of test [6] is T5, Muscarinic acetylcholine receptor M1 (Homo sapiens) (UniProt P11229).
T5 sequence (whole entry): T1 sequence (P11229 whole entry)
Kind of test: Agonist activity at human muscarinic M1 receptor expressed in CHO cells after 30 mins by GTPgamma35S binding assay relative to oxotremorine-M.

Test [7] concerns the target T6, Muscarinic acetylcholine receptor M2 (Homo sapiens) (UniProt P08172).
T6 sequence (whole entry): T2 sequence (P08172 whole entry)
Kind of test: Agonist activity at human muscarinic M2 receptor expressed in CHO cells after 30 mins by GTPgamma35S binding assay relative to oxotremorine-M.

In test [8] the target is T7, Muscarinic acetylcholine receptor M4 (Homo sapiens) (UniProt P08173).
T7 sequence (whole entry): T3 sequence (P08173 whole entry)
Kind of test: Agonist activity at human muscarinic M4 receptor expressed in CHO cells after 30 mins by GTPgamma35S binding assay relative to oxotremorine-M.

The term EC50 denotes the concentration needed to bring the measured effect to its halfway point. Low readings indicate higher potency in that assay, high ones lower potency in that assay.

Muscarinic acetylcholine receptor M3, sequence (P20309 whole entry): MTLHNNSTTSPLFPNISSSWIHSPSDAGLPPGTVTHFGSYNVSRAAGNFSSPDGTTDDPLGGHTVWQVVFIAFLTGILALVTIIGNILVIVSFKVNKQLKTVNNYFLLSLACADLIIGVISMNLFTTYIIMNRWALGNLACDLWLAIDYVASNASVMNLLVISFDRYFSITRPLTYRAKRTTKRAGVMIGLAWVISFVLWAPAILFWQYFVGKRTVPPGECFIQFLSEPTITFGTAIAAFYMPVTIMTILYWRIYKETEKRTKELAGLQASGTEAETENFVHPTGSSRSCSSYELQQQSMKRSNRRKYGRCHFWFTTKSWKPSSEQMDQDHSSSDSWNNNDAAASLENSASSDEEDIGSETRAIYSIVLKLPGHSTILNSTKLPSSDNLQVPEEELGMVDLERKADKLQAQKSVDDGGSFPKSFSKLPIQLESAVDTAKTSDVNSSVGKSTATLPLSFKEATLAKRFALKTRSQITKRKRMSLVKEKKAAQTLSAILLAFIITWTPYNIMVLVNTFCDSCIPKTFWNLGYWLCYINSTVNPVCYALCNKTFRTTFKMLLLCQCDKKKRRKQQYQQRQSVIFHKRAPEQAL

As for `C/C(=N\c1ccc2c(c1)[C@@H](NC(=O)c1ccc(Br)cc1)[C@H](O)C2)NCc1ccccc1F`, the concentration giving a half-maximal response (EC50) in test [1] was 87 nM; in test [2], 118 nM; in test [3] it was “Not Active”; in test [4] it was 227 nM; in test [5], “Not Active”. Moreover, the Efficacy in test [6] stood at 78.5%; in test [7], 33.6%; in test [8], 25.7%.

`COc1cccc(CN/C(C)=N/c2ccc3c(c2)[C@@H](NC(=O)c2ccc(Br)cc2)[C@H](O)C3)c1`: the concentration giving a half-maximal response (EC50) is 198 nM in test [1], “Not Active” in test [3] and “Not Active” in test [5]. For the same molecule, the values for the Efficacy in test [6], in test [7] and in test [8] were 60%, less than 20% and less than 20%, respectively.

In the case of `COc1ccc(N/C(C)=N/c2ccc3c(c2)[C@@H](NC(=O)c2ccc(Br)cc2)[C@H](O)C3)cc1`, the EC50 was 105 nM in test [1], “Not Active” in test [3] and “Not Active” in test [5]. Besides, the Efficacy in test [6] was 35.3%; in test [7], less than 20%; in test [8], less than 20%.

In the case of `COc1ccc(CCN/C(C)=N/c2ccc3c(c2)[C@@H](NC(=O)c2ccc(Br)cc2)[C@H](O)C3)cc1`, the concentration giving a half-maximal response (EC50) is 426 nM in test [1]; 411 nM in test [2]; “Not Active” in test [3]; 1360 nM in test [4]; “Not Active” in test [5]. The Efficacy in test [6] amounted to 84.5%; in test [7], 38.9%; in test [8], 29.9%.

On to `C/C(=N\c1ccc2c(c1)[C@@H](NC(=O)c1ccc(Br)cc1)[C@H](O)C2)NCCc1ccc(F)cc1`, for which the half-maximal effective concentration (EC50) in test [1] was 183 nM; in test [2], 211 nM; in test [3] it was “Not Active”; in test [5], “Not Active”. The Efficacy in test [6] was 90.6%; in test [7] it was 38.5%; in test [8], less than 20%.

For `C/C(=N\c1ccc2c(c1)[C@@H](NC(=O)c1ccc(Cl)cc1)[C@H](O)C2)N(C)Cc1ccc(F)cc1`, the EC50 in test [1] was 31 nM; in test [2], 65.5 nM; in test [3], “Not Active”; in test [4] it was 405 nM; in test [5], “Not Active”. In addition, the values for the Efficacy in test [6], in test [7] and in test [8] were 112%, 45% and 42.8%, respectively.

As for `C/C(=N\c1ccc2c(c1)[C@@H](NC(=O)c1ccc(Br)cc1)[C@H](O)C2)N(C)Cc1ccc(F)cc1`, the concentration for a half-maximal effect (EC50) in test [1] was 154 nM; in test [2] it was 604 nM; in test [3], “Not Active”; in test [4] it was 3720 nM; in test [5] it was “Not Active”. Also, the figures for the Efficacy in test [6], in test [7] and in test [8] were 107%, 30.9% and 34.3%, respectively.

Turning to `COc1ccc(C(=O)N[C@@H]2c3cc(/N=C(\C)N(C)Cc4ccc(F)cc4)ccc3C[C@H]2O)cc1`, the EC50 in test [1] is 166 nM; in test [3], “Not Active”; in test [5], “Not Active”. Besides, the Efficacy in test [6] is 93.2%; in test [7], less than 20%; in test [8], less than 20%.

For the molecule `C/C(=N\c1ccc2c(c1)[C@@H](NC(=O)c1ccc(C(F)(F)F)cc1)[C@H](O)C2)N(C)Cc1ccc(F)cc1`, the EC50 was 36 nM in test [1]; 172 nM in test [2]; “Not Active” in test [3]; 393 nM in test [4]; “Not Active” in test [5]. Moreover, the Efficacy in test [6] worked out at 106%; in test [7] it was 25.4%; in test [8], 30.8%.

`COc1ccccc1CN/C(C)=N/c1ccc2c(c1)[C@@H](NC(=O)c1ccc(Br)cc1)[C@H](O)C2`: the half-maximal effective concentration (EC50) was 572 nM in test [1], “Not Active” in test [3] and “Not Active” in test [5]. Also, the Efficacy is 71.5% in test [6], less than 20% in test [7] and less than 20% in test [8].

For `C/C(=N\c1ccc2c(c1)[C@@H](NC(=O)c1ccc(C)cc1)[C@H](O)C2)N(C)Cc1ccc(F)cc1`, the EC50 in test [1] was 49.5 nM; in test [2] it was 65.4 nM; in test [3] it was “Not Active”; in test [4] it was 235 nM; in test [5], “Not Active”. The Efficacy stood at 106% in test [6], 45.1% in test [7] and 41.5% in test [8].

As for `C/C(=N\c1ccc2c(c1)[C@@H](NC(=O)c1ccc(Br)cc1)[C@H](O)C2)N(C)CCc1ccc(F)cc1`, the EC50 in test [1] is 80.9 nM; in test [2] it was 342 nM; in test [3], “Not Active”; in test [5], “Not Active”. Further, the figures for the Efficacy in test [6], in test [7] and in test [8] were 68.5%, 20.8% and less than 20%, respectively.

In the case of `C/C(=N\c1ccc2c(c1)[C@@H](NC(=O)c1ccc(F)cc1)[C@H](O)C2)N(C)Cc1ccc(F)cc1`, the EC50 in test [1] is 392 nM; in test [2], 242 nM; in test [3] it was “Not Active”; in test [4], 392 nM; in test [5], “Not Active”. Also, the results for the Efficacy in test [6], in test [7] and in test [8] were 76.6%, 43.6% and 28.4%, respectively.

Regarding `COc1ccc(CN/C(C)=N/c2ccc3c(c2)[C@@H](NC(=O)c2ccc(Br)cc2)[C@H](O)C3)cc1`, the half-maximal effective concentration (EC50) in test [1] was 837 nM; in test [3], “Not Active”; in test [5] it was “Not Active”. In addition, the Efficacy is 32.1% in test [6], less than 20% in test [7] and less than 20% in test [8].

Regarding `C/C(=N\c1ccc2c(c1)[C@@H](NC(=O)c1ccc(Br)cc1)[C@H](O)C2)NCc1cccc(F)c1`, the EC50 in test [1] is 48.4 nM; in test [2], 435 nM; in test [3], “Not Active”; in test [4], 355 nM; in test [5] it was “Not Active”. Further, the Efficacy stood at 94% in test [6], 26.6% in test [7] and 33.4% in test [8].

In the case of `O=C(N[C@@H]1c2cc(/N=C(/Nc3ccc(F)cc3)C(F)(F)F)ccc2C[C@H]1O)c1ccc(Br)cc1`, the half-maximal effective concentration (EC50) result in test [3] and in test [5] was “Not Active” in each case. The Efficacy in test [6], in test [7] and in test [8] was less than 20% each time.
